# Data from patent US12673961B2 (Agios Pharmaceuticals, Inc., priority 2022, dated 2026).
# Target: T1, human PAH with the R408W mutation (Homo sapiens, UniProt P00439, R408W)
# T1 construct: expressed in transfected cells
# T1 sequence (P00439 1-452 R408W): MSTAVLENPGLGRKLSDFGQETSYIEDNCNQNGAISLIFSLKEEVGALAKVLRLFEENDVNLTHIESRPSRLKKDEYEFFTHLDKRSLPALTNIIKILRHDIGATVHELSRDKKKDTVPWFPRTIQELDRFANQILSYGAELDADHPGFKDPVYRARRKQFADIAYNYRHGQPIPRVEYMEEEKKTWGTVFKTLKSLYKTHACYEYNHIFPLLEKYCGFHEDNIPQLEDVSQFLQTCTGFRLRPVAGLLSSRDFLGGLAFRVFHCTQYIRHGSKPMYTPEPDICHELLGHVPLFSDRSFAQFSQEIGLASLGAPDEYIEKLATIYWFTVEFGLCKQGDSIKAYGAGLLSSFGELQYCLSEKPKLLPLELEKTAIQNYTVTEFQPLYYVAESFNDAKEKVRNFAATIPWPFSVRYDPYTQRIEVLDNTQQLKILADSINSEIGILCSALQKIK
# Experiment: Cell Based Phenylalanine Flux Assay;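 note: Ten-point dose curve from 2-fold serial dilutions, run in duplicate at 0.5% DMSO final, tracer step used 20 µM sepiapterin and 800 µM labeled phenylalanine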
# Details: A375 cells expressing R408W PAH; 24 hrs with compound, then 20 μM sepiapterin and 800 μM 13C9,15N-Phenylalanine for 4 hours; 13C-Tyrosine in media by LC-MS; average where tested multiple times; read-out: AC50
# Experimental: Compounds were resuspended in DMSO, and 2-fold serial dilutions were performed to generate a 10-point dose curve. Compounds were added to plated cells in a total volume of 100 μl, and a final DMSO concentration of 0.5%. Each compound was tested in duplicate. Following compound addition, cells were placed in a 5% CO2, 37° C. tissue culture incubator for 24 hrs. […] 20 μM sepiapterin and 800 μM 13C9,15N-Phenylalanine were added. After 4 hours, cell media was removed. An aliquot of 10 μl of cell media was combined with 200 μl of extraction buffer (80% acetonitrile/20% H2O) for each well. Determination of ^13C-Tyrosine concentration was assessed by liquid chromatography mass spectrometry.
# Where a compound was tested multiple times, the average value of the tests is reported.
row,SMILES,AC50 [µM]
1,"O=C(c1cnn(-c2ccccn2)c1Cl)N1CCc2[nH]cnc2[C@@H]1c1cc2ccccn2n1 (single isomer, unassigned)",> 5
2,"FC(F)c1cccn2nc([C@H]3c4nc[nH]c4CCN3c3nnc(-c4cccnc4)o3)cc12 (single isomer, unassigned)",> 5
3,"Cc1c(-c2ncc(C(=O)N3CCc4[nH]cnc4[C@H]3c3cc4ccccn4n3)o2)cnn1C (single isomer, unassigned)",1 to 5
4,"Cc1n[nH]cc1-c1nnc(C(=O)N2CCc3[nH]cnc3[C@H]2c2cc3c(C)cccn3n2)o1 (single isomer, unassigned)",1 to 5
5,"FC1(F)CC(c2nnc(N3CCc4[nH]cnc4[C@H]3c3cc4c(C(F)(F)F)cccn4n3)o2)C1 (single isomer, unassigned)",1 to 5
6,"O=C(c1nnc(C2CC(F)(F)C2)o1)N1CCc2[nH]cnc2[C@H]1c1cc2ccccn2n1 (single isomer, unassigned)",1 to 5
7,"CC(C)(F)c1nnc(N2CCc3[nH]cnc3[C@H]2c2cc3c(C4CC4)cccn3n2)o1 (single isomer, unassigned)",> 5
8,"CC(C)c1cccn2nc([C@@H]3c4nc[nH]c4CCN3c3nnc(-c4ncccn4)o3)cc12 (single isomer, unassigned)",1 to 5
9,"Clc1cccn2nc([C@@H]3c4nc[nH]c4CCN3c3nnc(-c4ncccn4)o3)cc12 (single isomer, unassigned)",1 to 5
10,"O=C(c1nnc(-c2ccc(C(F)(F)F)cn2)o1)N1CCc2[nH]cnc2[C@H]1c1cc2ccccn2n1 (single isomer, unassigned)",1 to 5
11,"O=C(c1cnc(-c2ncccn2)o1)N1CCc2[nH]cnc2[C@H]1c1cc2ccccn2n1 (single isomer, unassigned)",1 to 5
12,"Cc1cccc2cc([C@@H]3c4nc[nH]c4CCN3c3nnc(C4CCC4)o3)nn12 (single isomer, unassigned)",1 to 5
13,"Cc1cccn2nc([C@@H]3c4nc[nH]c4CCN3c3cccc(F)n3)cc12 (single isomer, unassigned)",1 to 5
14,"FC(F)(F)c1cccn2nc([C@@H]3c4nc[nH]c4CCN3c3nnc(-c4cccnc4)o3)cc12 (single isomer, unassigned)",1 to 5
15,"Fc1cccn2nc([C@@H]3c4nc[nH]c4CCN3c3nnc(-c4cccnn4)o3)cc12 (single isomer, unassigned)",1 to 5
16,"Fc1cccnc1-c1nnc(N2CCc3[nH]cnc3[C@H]2c2cc3c(C(F)(F)F)cccn3n2)o1 (single isomer, unassigned)",1 to 5
17,"c1cc(C2CC2)c2cc([C@@H]3c4nc[nH]c4CCN3c3nnc(-c4ccncn4)o3)nn2c1 (single isomer, unassigned)",1 to 5
18,"O=C(C1CC1)N1CCc2[nH]cnc2[C@H]1c1cc2c(F)cccn2n1 (single isomer, unassigned)",> 5
19,"Cn1cncc1-c1nnc(C(=O)N2CCc3[nH]cnc3C2c2cc3c(C(F)(F)F)cccn3n2)o1 (single isomer, unassigned) [4S enantiomer of 2-(1-methyl-1H-imidazol-5-yl)-5-14-[4-(trif]",1 to 5
20,"FC1(F)CC(c2nnc(N3CCc4[nH]cnc4C3c3cc4ccccn4n3)o2)C1 (single isomer, unassigned) [4S enantiomer of 2-(3,3-difluorocyclobutyl)-5-[4-{pyrazolo{1]",> 5
21,"FC(F)(F)c1ccc(N2CCc3[nH]cnc3C2c2cc3cccc(C(F)(F)F)n3n2)nc1 (single isomer, unassigned) [4S enantiomer of 5-(trifluoromethyl)-2-[4-[7-(trifluoromethy]",1 to 5

# Same assay, conditions: A375 cells expressing human R408W PAH; 24 hrs compound incubation; 13C-Tyrosine by LC-MS; average where tested multiple times; read-out: AC50
row,SMILES,AC50 [µM]
1,"N#Cc1ncoc1C(=O)N1CCc2[nH]cnc2[C@H]1c1cc2ccccn2n1 (single isomer, unassigned) [Example 640]",0.5 to 1
2,"N#Cc1ncoc1C(=O)N1CCc2[nH]cnc2[C@@H]1c1cc2ccccn2n1 (single isomer, unassigned) [Example 641]",> 5
3,"Cn1ccc(-c2nnc(C(=O)N3CCc4[nH]cnc4[C@@H]3c3cc4c(C(F)(F)F)cccn4n3)o2)n1 (single isomer, unassigned) [Example 837]",> 5
